# Measurements reported in ChEMBL document CHEMBL5550106, “Recent advances in the exploration of oxazolidinone scaffolds from compound development to antibacterial agents and other bioactivities” (Eur J Med Chem, 2024).
# What was measured:
# Coagulation factor X = Coagulation factor X (Homo sapiens, UniProt P00742); experiment: Inhibition of human factor Xa
# Escherichia coli [1] = experiment: Antibacterial activity against Escherichia coli MG1655 in presence of polymyxin B nonapeptide; format: functional
# Staphylococcus aureus [2] = experiment: Antibacterial activity against Staphylococcus aureus assessed as reduction in bacterial growth incubated for 24 hrs by broth microdilution method; format: functional
# Escherichia coli [3] = experiment: Antibacterial activity against efflux pump-efficient Escherichia coli MG1655 assessed as bacterial growth inhibition; format: functional
# Escherichia coli [4] = experiment: Antimicrobial activity against wild type Escherichia coli MG1655 assessed as inhibition of microbial growth; format: functional
# [5] = test system: Staphylococcus epidermidis; experiment: Antibacterial activity against Staphylococcus epidermidis assessed as reduction in microbial growth after 24 hrs by CLSI based microdilution method; format: functional
# [6] = test system: Staphylococcus epidermidis; experiment: Antibacterial activity against linezolid-resistant Staphylococcus epidermidis assessed as reduction in bacterial growth; format: functional
# Staphylococcus aureus [7] = experiment: Antibacterial activity against Linezolid-resistant Staphylococcus aureus assessed as reduction in bacterial growth; format: functional
# Staphylococcus aureus [8] = experiment: Antibacterial activity against methicillin-resistant Staphylococcus aureus assessed as reduction in microbial growth by CLSI based broth microdilution method; format: functional
# Staphylococcus aureus [9] = experiment: Antibacterial activity against Staphylococcus aureus assessed as reduction in microbial growth by CLSI based broth microdilution method; format: functional
# [10] = test system: Staphylococcus epidermidis; experiment: Antibacterial activity against Methicillin-resistant Staphylococcus epidermidis assessed as bacterial growth inhibition; format: functional
# Chain of Coagulation factor X (P00742 41-179 limits assumed): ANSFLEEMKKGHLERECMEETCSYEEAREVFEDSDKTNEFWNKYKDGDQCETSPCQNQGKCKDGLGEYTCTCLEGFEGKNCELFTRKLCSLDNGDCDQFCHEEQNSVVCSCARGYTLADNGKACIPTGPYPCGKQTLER
# Chain of Coagulation factor X (P00742 235-488 limits assumed): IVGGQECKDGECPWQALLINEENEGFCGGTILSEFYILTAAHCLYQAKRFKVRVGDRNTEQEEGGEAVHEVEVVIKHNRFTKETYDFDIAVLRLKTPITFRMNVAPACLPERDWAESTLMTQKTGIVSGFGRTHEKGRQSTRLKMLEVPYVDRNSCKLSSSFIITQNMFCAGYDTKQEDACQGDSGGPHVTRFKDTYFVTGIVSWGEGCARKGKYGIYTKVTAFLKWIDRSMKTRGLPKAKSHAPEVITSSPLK
Compound,IC50 (Coagulation factor X) [nM],MIC (Escherichia coli [1]) [µg/mL],MIC (Staphylococcus aureus [2]) [µg/mL],MIC (Escherichia coli [3]) [µg/mL],MIC (Escherichia coli [4]) [µg/mL],MIC [5] [µg/mL],MIC [6] [µg/mL],MIC (Staphylococcus aureus [7]) [µg/mL],MIC (Staphylococcus aureus [8]) [µg/mL],MIC (Staphylococcus aureus [9]) [µg/mL],MIC [10] [µg/mL]
O=C(NC[C@@H]1OC(=O)N2c3ccc(N4CCOCC4=O)cc3OC[C@@H]12)c1ccc(Cl)s1,3,,,,,,,,,,
O=C(NC[C@@H]1OC(=O)N2c3ccc(N4CCOCC4=O)cc3OC[C@H]12)c1ccc(Cl)s1,50,,,,,,,,,,
CC(=O)N(C)c1ccc2c(c1)OC[C@H]1[C@H](CNC(=O)c3ccc(Cl)s3)OC(=O)N21,2210,,,,,,,,,,
O=C(NC[C@@H]1OC(=O)N2c3ccc(N4CCOC4=O)cc3OC[C@@H]12)c1ccc(Cl)s1,15700,,,,,,,,,,
NCc1ncc(-c2ccc(N3C[C@H](CO)OC3=O)cc2F)cc1O,,32,20,32,51,,,,,,
NCc1cc(F)c(-c2ccc(N3C[C@H](CO)OC3=O)cc2F)cc1O,,32,32,64,64,,,,,,
NCc1ccc(-c2ccc(N3C[C@H](CO)OC3=O)cc2F)cc1O,,32,2.8,8,84,,,,,,
COC(=O)C1(C(=O)OC)Cc2cc(-c3ccc(N4C[C@H](CO)OC4=O)cc3F)ccc2N2CCOCC21 (stereo partly drawn),,,,,,8,> 32,> 32,8,16,8
CC(=O)NC[C@H]1CN(c2ccc(-c3ccc4c(c3)CC3(C(=O)NC(=O)NC3=O)C3CCCCN43)c(F)c2)C(=O)O1 (stereo partly drawn),,,,,,2,> 32,16,< 1,2,< 1
COC(=O)NC[C@H]1CN(c2ccc(-c3ccc4c(c3)CC3(C(=O)NC(=O)NC3=O)C3CCCN43)c(F)c2)C(=O)O1 (stereo partly drawn),,,,,,2,32,32,2,2,2
O=C1NC(=O)C2(Cc3cc(-c4ccc(N5C[C@H](CO)OC5=O)cc4F)ccc3N3CCOCC32)C(=O)N1 (stereo partly drawn),,,,,,4,32,32,4,8,2
COC(=O)NC[C@H]1CN(c2ccc(-c3ccc4c(c3)CC3(C(=O)NC(=O)NC3=O)C3COCCN43)c(F)c2)C(=O)O1 (stereo partly drawn),,,,,,4,32,> 32,4,4,2
O=C1NC(=O)C2(Cc3cc(-c4ccc(N5C[C@H](CO)OC5=O)cc4F)ccc3N3CCCCC32)C(=O)N1 (stereo partly drawn),,,,,,2,32,16,2,4,< 1
COC(=O)C1(C(=O)OC)Cc2cc(-c3ccc(N4C[C@H](CNC(C)=O)OC4=O)cc3F)ccc2N2CCOCC21 (stereo partly drawn),,,,,,4,32,> 32,4,8,4
CC(=O)NC[C@H]1CN(c2ccc(-c3ccc4c(c3)CC3(C(=O)NC(=O)NC3=O)C3CCCN43)c(F)c2)C(=O)O1 (stereo partly drawn),,,,,,2,32,16,2,2,< 1
CC(=O)NC[C@H]1CN(c2ccc(-c3ccc4c(c3)CC3(C(=O)NC(=O)NC3=O)C3COCCN43)c(F)c2)C(=O)O1 (stereo partly drawn),,,,,,4,32,32,4,4,2
O=C1NC(=O)C2(Cc3cc(-c4ccc(N5C[C@H](CO)OC5=O)cc4F)ccc3C3CCCCC32)C(=O)N1 (stereo partly drawn),,,,,,2,32,32,2,4,< 1
CC(=O)NC[C@H]1CN(c2ccc(-c3ccc4c(c3)CC3(C(=O)NCNC3=O)C3CCCCC43)c(F)c2)C(=O)O1 (stereo partly drawn),,,,,,8,> 32,> 32,8,8,4
O=C1O[C@@H](CO)CN1c1ccc(-c2ccc3c(c2)CC2(C(=O)NCNC2=O)C2CCCCC32)c(F)c1 (stereo partly drawn),,,,,,2,32,32,2,4,< 1
